Assay results reported in patent publication US8318943B1, “Sorbitol/dexlansoprazole co-crystals and method for making same” (Takeda Pharmaceuticals U.S.A., Inc., priority 2010, dated 2012).
In brackets after ≈: the same amount, converted by molar mass. Like-named read-outs stand apart in the source and are kept apart here. Marks after values point to notes of the source that are not given here.

How the values were obtained:
[1] = cited from earlier work
[2] = Approximate solubility tests in selected solvents; assay type: physicochemical; conditions: organic solvent or mixture, read-out: Solubility [S, mg/ml]
Source text: A sample of dexlansoprazole sesquihydrate was characterized by FT-Raman spectroscopy, XRPD, ^1H-NMR and approximate solubility tests.
Accordingly, ethanol, ethyl acetate, acetonitrile, and THF were chosen as solvents for the co-crystal screening.

physchem = conditions: thermodynamic from solid
Method: (§2) The approximate solubilities of the sorbitol co-crystal former were estimated at 60° C. and of the 1:1 dexlansoprazole-sorbitol co-crystal at 40° C. and 10° C. […] The solubility values presented are intended to be regarded as rough estimates and are to be used solely for the design of crystallization experiments. All solvent mixtures are listed as ratios by volume (v/v).
(§3) The solubility values presented are intended to be regarded as rough estimates and are to be used solely for the design of crystallization experiments. All solvent mixtures are listed as ratios by volume (v/v).

[3] = Stability of the co-crystal as a solid and in water or solution; conditions: for Stability in water for 24 hours: 25° C., disintegration into its components
Method: Solubility was determined by adding approximately 0.5 mL of doubly distilled water to 19.1 mg of the substance to be measured. The resulting suspension was equilibrated in a temperature-controlled Eppendorf Thermomixer Comfort Shaker for 24 hours at 25° C. at a shaking rate of 500 rpm. The solid phase was recovered by filter centrifugation (0.1-μm PVDF membrane) and examined by FT-Raman spectroscopy. Concentrations in the filtrate (i.e., saturated solutions) or diluted solutions thereof were determined using the HPLC method disclosed herein. The pH of the saturated solution was determined with a Metrohm 713 pH meter.

[4] = Kinetic solubility experiment in water; assay type: physicochemical
Method: (§1) HPLC was carried out in a TSP instrument with a P4000 pump, an AS3000 autosampler, an SCM1000 degasser, a UV3000 detector, and PC1000 Version 4.1 software.
A further experiment to evaluate the kinetic solubility was carried out. The maximum was reached already after 15 minutes and that the concentration in the solution remained constant for the duration of the experiment.

[5] = Aqueous solubility, 24 h equilibration, HPLC of filtrate; assay type: physicochemical
Method: as §1
The pH of the corresponding saturated solution was 6.1. […] This may be due to chemical instability of dexlansoprazole in the solution environment.

[6] = Approximate solubility by manual dilution combined with visual observation; conditions: for solubility / Solubility (mg/mL): room temperature
Method: as §2, §3

[7] = Dynamic vapor sorption (DVS), hygroscopicity; assay type: physicochemical; conditions: for DVS weight gain at 85% relative humidity: 85% r.h.; for FT-Raman post-DVS compared with pre-DVS/reference (form change): after DVS cycle
Method: DVS was carried out in a Surface Measurement System DVS-1. The sample was placed on a platinum holder on top of a microbalance and allowed to equilibrate for 2 hours at 50% r.h. before starting the pre-defined humidity program: 50→95% r.h. (5%/h); 5 hours at 95% r.h., 95→0% r.h. (5%/h); 5 h at 0% r.h., then 0→50% r.h. (5%/h); and 2 hours at 50% r.h.
The hygroscopicity was classified based on the mass gain at 85% r.h. relative to the initial mass as follows: deliquescent (sufficient water adsorbed to form a liquid), very hygroscopic (mass increase of ≧15%), hygroscopic (mass increase <15% but ≧2%), slightly hygroscopic (mass increase <2% but ≧0.2%), or non-hygroscopic (mass increase <0.2%).
In order to examine the behavior of SP134-SBT-P26 in the presence of variable water vapor pressure, the sample was analyzed by isothermal DVS at 25° C. […] The sample was conditioned at 50% r.h. before starting a pre-defined humidity program with a scanning rate of 5% r.h. change per hour. Below 50% r.h. a small but continuous mass loss of the sample is observed (˜0.07%). This mass loss is in good accordance to the results of the TG-FTIR-measurement and Karl Fischer water content determination.
In order to examine the behavior of SP134-SBT-P27 in the presence of variable water vapor pressure, the sample was analyzed by isothermal DVS at 25° C. The sample was conditioned at 50% r.h. before starting a pre-defined humidity program with a scanning rate of 5% r.h. change per hour. Below 50% r.h. a small but continuous mass loss of the sample is observed (˜0.06%). This mass loss is in good accordance to the results of the TG-FTIR-measurement and Karl Fischer water content determination.

[8] = 1:1 EtOAc/DMSO (v/v), organic solvent or mixture
[9] = 1:1 EtOH/H2O (v/v), aqueous with cosolvent or surfactant or cyclodextrin
[10] = 2:1 EtOH/H2O + 5 vol.-% NH3 solution, aqueous with cosolvent or surfactant or cyclodextrin
[11] = 2:1 MeOH/H2O + 5 vol.-% NH3 solution, aqueous with cosolvent or surfactant or cyclodextrin
[12] = 2:1 MeOH/borax buffer, pH 9, aqueous with cosolvent or surfactant or cyclodextrin
[13] = 9:1 EtOAc/DMSO (v/v), organic solvent or mixture
[14] = DMSO, organic solvent or mixture
[15] = EtOAc, organic solvent or mixture
[16] = MeOH, organic solvent or mixture
[17] = isothermal DVS at 25° C., listed as SP134-SBT-P27

## Cc1c(OCC(F)(F)F)ccnc1C[S@@+]([O-])c1nc2ccccc2[nH]1 [Dexlansoprazole]
[1]; acetonitrile
  Descriptive solubility: soluble
[1]; dichloromethane
  Descriptive solubility: freely soluble
[1]; dimethyl formamide
  Descriptive solubility: freely soluble
[1]; ethanol
  Descriptive solubility: freely soluble
[1]; ether
  Descriptive solubility: slightly soluble
[1]; ethyl acetate
  Descriptive solubility: freely soluble
[1]; hexane
  Descriptive solubility: substantially insoluble
[1]; light
  Stability when exposed to light: stable
[1]; methanol
  Descriptive solubility: freely soluble
[1]; neutral and alkaline vs acidic conditions
  Stability depending on pH conditions: more stable in neutral and alkaline conditions than acidic conditions
[1]; water
  Descriptive solubility: very slightly soluble

## Cc1c(OCC(F)(F)F)ccnc1C[S@@+]([O-])c1nc2ccccc2[nH]1 [SP134-FD-P1, dexlansoprazole sesquihydrate, reference compound]
[2]; MEK
  solubility: ~226 mg/mL
[2]; THF
  solubility: ~228 mg/mL
[2]; acetone
  solubility: ~230 mg/mL
[2]; acetonitrile
  solubility: ~210 mg/mL
[2]; ethanol
  solubility: ~228 mg/mL
[2]; ethyl acetate
  solubility: ~204 mg/mL
[2]; methanol
  solubility: ~204 mg/mL
physchem; [8]
  solubility: > 200 mg/mL
physchem; [9]
  solubility: ~30 mg/mL
physchem; [10]
  solubility: 100 to 200 mg/mL
physchem; [11]
  solubility: 100 to 200 mg/mL
physchem; [12]
  solubility: 90 to 190 mg/mL
physchem; [13]
  solubility: > 200 mg/mL
physchem; [14]
  solubility: > 200 mg/mL
physchem; [15]
  solubility: > 20 mg/mL
physchem; [16]
  solubility: > 200 mg/mL
physchem; ethanol, organic solvent or mixture
  solubility: > 200 mg/mL
physchem; water
  solubility: < 1 mg/mL

## Cc1c(OCC(F)(F)F)ccnc1C[S+]([O-])c1nc2ccccc2[nH]1.Cc1c(OCC(F)(F)F)ccnc1C[S+]([O-])c1nc2ccccc2[nH]1.OCC(O)C(O)C(O)C(O)CO.OCC(O)C(O)C(O)C(O)CO.OCC(O)C(O)C(O)C(O)CO (stereo not shown) [SP134-SBT-P7]
[3]; solid
  Stability as a solid: stable
[3]
  Stability in water for 24 hours: solid form not stable in H2O for 24 h, disintegrates
[3]; listed as dexlansoprazole/sorbitol co-crystal
  Stability in water for 24 hours: not stable
[4]; after 15 minutes
  Solubility as a function of time, constant value reached: 0.25 mg/mL
[4]; 15 min
  Kinetic solubility in water: 0.25 mg dexlansoprazole per ml
[4]; 30 min
  Kinetic solubility in water: 0.26 mg dexlansoprazole per ml
[4]; 1 hour
  Kinetic solubility in water: 0.26 mg dexlansoprazole per ml
[4]; 2 hour
  Kinetic solubility in water: 0.24 mg dexlansoprazole per ml
[4]; 4 hrs.
  Kinetic solubility in water: 0.27 mg dexlansoprazole per ml
[4]; 8 hrs.
  Kinetic solubility in water: 0.27 mg dexlansoprazole per ml
[5]; 24 hours equilibration at 22° C., solid residue was free drug, so value corresponds to free drug
  Solubility in water: 0.18 mg/mL
[5]; water, 24 hours equilibration
  pH of the saturated solution: 6.1
[6]; 1:1 EtOAc/DMSO
  solubility: >200 mg/mL
[6]; 1:1 EtOH/H2O
  Solubility (mg/mL): 50-100^a mg/mL
[6]; 2:1 EtOH/H2O + 5 vol.-% NH3 solution
  solubility: 60 to 100 mg/mL
[6]; 2:1 MeOH/H2O + 5 vol.-% NH3 solution
  solubility: 60 to 100 mg/mL
[6]; 2:1 MeOH/borax buffer (pH = 9.0)
  Solubility (mg/mL): 45-65^a mg/mL
[6]; 9:1 EtOAc/DMSO
  solubility: ~10 mg/mL
[6]; EtOAc
  solubility: <1 mg/mL
[6]; H2O
  Solubility (mg/mL): 0.25^a mg/mL
[7]
  Reversibility of DVS weight gain and loss: reversible
  DVS weight gain at 85% relative humidity: (~70-75% r.h.), gain of ~7 wt.-% at 85% r.h.;
  FT-Raman post-DVS compared with pre-DVS/reference (form change): no significant changes
[7]; 0% r.h.
  DVS weight loss at 0% r.h. relative to the starting weight: < 1 wt.-%
[7]; 50% r.h. after lowering from 95% r.h.
  DVS weight increase at 50% r.h. on desorption relative to the starting weight: ~1 wt. %
[7]; 70-75% r.h.
  DVS step in weight gain: ~4 wt.-%
[7]; listed as sorbitol co-crystal
  DVS weight gain at 85% relative humidity: ~7 wt.-%
[7]; mass gain at 85% r.h. relative to the initial mass, listed as sorbitol co-crystal
  Hygroscopicity class: hygroscopic (mass increase <15% but ≧2%)
[7]; r.h. raised from 50% to 95%
  DVS weight gain at 95% relative humidity: 20 wt.-%

## Cc1c(OCC(F)(F)F)ccnc1C[S@@+]([O-])c1nc2ccccc2[nH]1.OC[C@@H](O)[C@@H](O)[C@H](O)[C@@H](O)CO [SP134-SBT-P26]
[6]; 1:3 DMSO/EtOH, 10° C.
  Approximate solubility: 14 to 16 mg/mL
[6]; 1:3 DMSO/EtOH, 40° C.
  Approximate solubility: 50 to 63 mg/mL
[6]; 1:4 DMSO/EtOH, 10° C.
  Approximate solubility: 11.5 to 12.5 mg/mL
[6]; 1:4 DMSO/EtOH, 40° C.
  Approximate solubility: >37 mg/mL
[6]; 1:5 DMSO/EtOH, 10° C.
  Approximate solubility: 9.3 to 9.8 mg/mL
[6]; 1:5 DMSO/EtOH, 40° C.
  Approximate solubility: 17 to 23 mg/mL
[6]; DMSO/EtOH, 40° C.
  Solubility relative to sorbitol and dexlansoprazole: less soluble than sorbitol and dexlansoprazole
[7]
  FT-Raman post-DVS compared with pre-DVS/reference (form change): no phase transition
[7]; isothermal DVS at 25° C.
  DVS water uptake at about 85% r.h. relative to the mass at 0% r.h.: 0.12%
  DVS mass loss below 50% r.h.: ~0.07%
[7]; [17]
  DVS water uptake at about 85% r.h. relative to the mass at 0% r.h.: 0.08%
  DVS mass loss below 50% r.h.: ~0.06%
[7]; isothermal DVS at 25° C., water uptake at about 85% r.h. relative to the mass at 0% r.h.
  Hygroscopicity class: not hygroscopic

## OC[C@@H](O)[C@@H](O)[C@H](O)[C@@H](O)CO [Sorbitol, D-sorbitol]
physchem; 1:1 DMSO/EtOH (v/v), 60 °C, organic solvent or mixture
  solubility: > 102 mg/mL
physchem; [8]
  solubility: 125 to 250 mg/mL (≈ 686 to 1370 mM)
physchem; 1:1 EtOAc/EtOH (v/v), 60 °C, organic solvent or mixture
  solubility: 3 mg/mL (≈ 16.5 mM)
physchem; [9]
  solubility: ~160 mg/mL (≈ 878 mM)
physchem; 1:2 EtOAc/EtOH (v/v), 60 °C, organic solvent or mixture
  solubility: 6 mg/mL (≈ 32.9 mM)
physchem; 1:3 DMSO/EtOH (v/v), 60 °C, organic solvent or mixture
  solubility: 54 to 108 mg/mL (≈ 296 to 593 mM)
physchem; 1:3 EtOAc/EtOH (v/v), 60 °C, organic solvent or mixture
  solubility: 10 mg/mL (≈ 54.9 mM)
physchem; 1:5 DMSO/EtOH (v/v), 60 °C, organic solvent or mixture
  solubility: 39 to 59 mg/mL (≈ 214 to 324 mM)
physchem; 1:5 EtOAc/EtOH (v/v), 60 °C, organic solvent or mixture
  solubility: 11 mg/mL (≈ 60.4 mM)
physchem; [10]
  solubility: 125 to 250 mg/mL
physchem; [11]
  solubility: > 250 mg/mL
physchem; [12]
  solubility: > 250 mg/mL
physchem; [13]
  solubility: ~1 mg/mL (≈ 5.49 mM)
physchem; [14]
  solubility: > 200 mg/mL
physchem; [15]
  solubility: < 1 mg/mL
physchem; [16]
  solubility: ~13 mg/mL (≈ 71.4 mM)
physchem; water
  solubility: > 200 mg/mL
